*1 amine or outer side, *2 acyl side, *3 side chain or, on linkers, in order; H or OH if unused. Where a SMILES comes first, the peptide text is derived from it. Bridges are numbered along the chain shown (N, C = ends). Roman numbers before positions name the chains, in order. [ ]: non-standard residue; d: D form. ξ: configuration not given here. CO(CH2CH2O)13CH2CH2CO = O=C(CCOCCOCCOCCOCCOCCOCCOCCOCCOCCOCCOCCOCCOCCC(=O)[*:2])[*:1]; X1 = O=C(OCCOCCOCCOCCOCCOCCOCCOCCOCCOCCOCCOCCOC(=O)[*:2])[*:1]; PEG8 = NCCOCCOCCOCCOCCOCCOCCOCCOCCC(=O)O; 3Pal = N[C@@H](Cc1cccnc1)C(=O)O; ξK = NCCCCC(N)C(=O)O; ξP = O=C(O)C1CCCN1; ξC = NC(CS)C(=O)O
Experiments:
Format in all cases: cell-based
[1] = molecular target: T1, TrkB (CellSensor TrkB-NFAT-bla CHO-K1 Cell) (Homo sapiens, UniProt Q16620); assay: pERK1/2 AlphaLISA assay (phosphorylation of ERK) for TrkB agonist activity; conditions: class = peptide concentration giving 50% or more activity; BDNF maximum signal = 100%, no stimulation = 0%; 15 minutes of stimulation
T1 construct: host or cells: CHO-K1 (CellSensor TrkB-NFAT-bla CHO-K1)
Experimental: To evaluate the TrkB activation potency of the TrkB agonist peptide of the present invention, the phosphorylation of ERK was examined. CellSensor (registered trademark) TrkB-NFAT-bla CHO-K1 Cell (Invitrogen) was cultured in DMEM, high glucose, GlutaMAX (registered trademark) Supplement, and pyruvate (Thermo), comprising 10% FBS (Thermo) and 1× Non-essential amino acids (Thermo), 25 mM HEPES (Thermo), 50 ug/mL Gentamicin, 5 ug/mL Blasticidin (Thermo), and 200 ug/mL Zeocin (Thermo). After the cells were detached using Accutase (Innovative Cell Technologies), they were seeded into a 96-well plate for adherent cultures at 12,500 cells per well and cultured overnight. The next day, for starvation, the culture solution above was replaced with a nutrient starvation medium comprising 0.1% BSA (Sigma), wherein FBS, Blasticidin, and Zeocin were removed from the culture medium, and culturing was performed for 4 hours. Thereafter, Recombinant Human BDNF Protein (R&D Systems) or a peptide was added, and after 15 minutes of stimulation, cells were lysed in the Lysis Buffer provided with the AlphaLISA SureFire Ultra p-Erk1/2 (Thr202/Tyr204) assay kit (PerkinElmer). The assay was performed according to the kit protocol. The signals were detected using a SpectraMax Paradigm Multi-Mode Microplate Reader (Molecular Devices). The obtained signals were analyzed with GraphPad Prism, and the activity (%) was calculated with the maximum value of the signals induced by BDNF as 100% and a signal with no stimulation as 0%. The peptide with 50% or more activity when 1 nM of the peptide was added was evaluated as A, and the peptide with 50% or more activity when 10 nM of the peptide was added was evaluated as B.
The BDNF was evaluated at 8 points (0.0006 nM to 10 nM) from 10 nM using 4-fold dilutions.
(§1) For dimer structures Nos. 1 to 3, the peptide was evaluated at 1 nM, 10 nM, and 100 nM, and, for other dimer structure numbers, the peptide was evaluated at 0.1 nM, 1 nM, and 10 nM. When creating the concentration dependence curve, the BDNF and the peptides were evaluated at 8 points (0.006 nM to 100 nM) from 100 nM using 4-fold dilutions.

[2] = molecular target: T1, TrkB (CellSensor TrkB-NFAT-bla CHO-K1 Cell); assay: NFAT transcriptional reporter assay for TrkB agonist activity; conditions: class = peptide concentration giving 50% or more activity; BDNF maximum signal = 100%, no stimulation = 0%; 5 hours culture
Experimental: To evaluate the TrkB activation potency of the TrkB agonist peptide of the present invention, transcriptional activity was examined using transcriptional reporters. The CellSensor (registered trademark) TrkB-NFAT-bla CHO-K1 Cell (Invitrogen) used in the AlphaLISA assay was cultured in the medium above. After the cells were detached using Accutase (Innovative Cell Technologies), the cells were suspended in an assay medium, wherein Blasticidin and Zeocin were removed, then seeded into a 96-well plate for adherent cultures at 12,500 cells per well and cultured overnight. Then, BDNF or a peptide was added thereto, and the cells were further cultured in a CO2 incubator for 5 hours. After the 96-well plate was removed from the incubator and brought to room temperature, a detection reagent (LiveBLAzer (registered trademark)-FRET B/G (CCF4-AM) Substrate Mixture) was added while protected from the light, and the 96-well plate was incubated while protected from the light in a moisture box with a lid for 2 hours. For signal detection, a EnVision 2104 Multilabel Plate Reader (PerkinElmer) was used, and the ratio of fluorescence emission value (460 nm/535 nm) was calculated. The obtained numerical values were analyzed with GraphPad Prism, and the activity (%) was calculated with the maximum value of the signals induced by BDNF as 100% and a signal with no stimulation as 0%. The peptide with 50% or more activity when 1 nM of the peptide was added was evaluated as A, the peptide with 50% or more activity when 10 nM of the peptide was added was evaluated as B, and the peptide with 50% or more activity when 100 nM of the peptide was added was evaluated as C. Those that were not evaluated were listed as not tested.
The BDNF was evaluated at 7 points (0.0024 nM to 10 nM) from 10 nM using 4-fold dilutions.
as §1, with “at […]” for “at 8”, “[…]” for “from 100”

TrkB = TrkB (Homo sapiens, UniProt Q16620); assay: PathHunter eXpress TrkB Functional Assay (phosphorylation of TrkB); conditions: stimulation for 3 hours; for Emax: maximum signal induced by BDNF = 100%
Experimental: To evaluate the TrkB activation potency of the TrkB agonist peptide of the present invention, the phosphorylation of TrkB was examined. The PathHunter (registered trademark) eXpress TrkB Functional Assay kit (DiscoverX; cells, 96-well plate, medium, and detection reagents included) was used and the evaluation was performed according to the attached protocols. The frozen cells were thawed and suspended in the medium, then seeded into a 96-well plate at 10,000 cells per well and incubated for 48 hours. Thereafter, Recombinant Human BDNF Protein (R&D Systems) or a peptide was added, and after stimulation for 3 hours, a detection reagent was added. The reaction was performed while protected from the light at room temperature for 60 minutes, and luminescent signals were measured using a SpectraMax Paradigm Multi-Mode Microplate Reader (Molecular Devices). The obtained signals were analyzed with GraphPad Prism, and the activity (%) was calculated with the maximum value of the signals induced by BDNF as 100% and a signal with no stimulation as 0%.
The BDNF was evaluated at 8 points (0.006 nM to 100 nM) from 100 nM using 4-fold dilutions. The peptide was evaluated in the measurement ranges A to C shown below. • Measurement range A=6 points from 100 nM using 5-fold dilutions (0.032 nM to 100 nM) • Measurement range B=8 points from 100 nM using 4-fold dilutions (0.006104 nM to 100 nM) • Measurement range C=4 points from 10 nM using 10-fold dilutions (0.01 nM to 10 nM)

Sequence of TrkB (Q16620 32-822): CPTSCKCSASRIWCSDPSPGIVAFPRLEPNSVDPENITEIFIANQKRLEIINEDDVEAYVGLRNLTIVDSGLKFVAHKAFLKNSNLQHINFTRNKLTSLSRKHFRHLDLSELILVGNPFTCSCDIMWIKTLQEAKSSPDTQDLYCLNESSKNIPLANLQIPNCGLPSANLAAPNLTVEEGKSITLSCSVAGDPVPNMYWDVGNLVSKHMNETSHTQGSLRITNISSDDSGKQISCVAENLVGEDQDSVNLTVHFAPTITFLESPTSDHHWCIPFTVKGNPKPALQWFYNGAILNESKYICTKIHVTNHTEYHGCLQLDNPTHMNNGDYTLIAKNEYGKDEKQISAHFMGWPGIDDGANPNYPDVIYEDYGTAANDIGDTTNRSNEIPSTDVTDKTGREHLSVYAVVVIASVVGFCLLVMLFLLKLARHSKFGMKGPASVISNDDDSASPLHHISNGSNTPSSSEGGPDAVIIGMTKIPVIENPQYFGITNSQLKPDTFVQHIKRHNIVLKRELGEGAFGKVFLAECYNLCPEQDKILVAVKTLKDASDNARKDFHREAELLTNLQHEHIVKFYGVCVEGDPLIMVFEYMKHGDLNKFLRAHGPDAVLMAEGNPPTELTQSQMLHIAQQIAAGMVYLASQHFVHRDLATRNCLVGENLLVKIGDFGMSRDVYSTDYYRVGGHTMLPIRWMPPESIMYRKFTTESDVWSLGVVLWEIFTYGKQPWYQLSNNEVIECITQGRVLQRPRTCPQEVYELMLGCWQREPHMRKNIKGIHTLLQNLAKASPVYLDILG
T1 sequence (Q16620 32-822): as above

Row | Compound | pERK (aLISA) Assay Results [1] | NFAT Assay Results [2] | Emax (TrkB) [%] | EC50 (TrkB) [nM]
1 | CC(C)[C@@H]1NC(=O)[C@H](Cc2cccnc2)NC(=O)[C@H](CCC(=O)O)NC(=O)[C@H](CO)NC(=O)[C@H](Cc2ccc(O)cc2)NC(=O)[C@H]([C@@H](C)O)NC(=O)C2CCCN2C(=O)[C@H](Cc2c[nH]c3ccccc23)NC(=O)[C@H](Cc2cccnc2)NC(=O)[C@H](Cc2ccc(O)cc2)NC(=O)[C@@H]2CCCN2C(=O)[C@H](CO)NC(=O)[C@H](Cc2ccccc2)NC(=O)CSC[C@@H](C(=O)NCC(=O)N[C@@H](CCCCNC(=O)CCOCCOCCOCCOCCOCCOCCOCCOCCOCCOCCOCCOCCOCCC(=O)NCCCC[C@H](NC(=O)CNC(=O)[C@@H]2CSCC(=O)N[C@@H](Cc3ccccc3)C(=O)N[C@@H](CO)C(=O)N3CCC[C@H]3C(=O)N[C@@H](Cc3ccc(O)cc3)C(=O)N[C@@H](Cc3cccnc3)C(=O)N[C@@H](Cc3c[nH]c4ccccc34)C(=O)N3CCC[C@H]3C(=O)N[C@@H]([C@@H](C)O)C(=O)N[C@@H](Cc3ccc(O)cc3)C(=O)N[C@@H](CO)C(=O)N[C@@H](CCC(=O)O)C(=O)N[C@@H](Cc3cccnc3)C(=O)N[C@@H](C(C)C)C(=O)N[C@@H](CCC(=O)O)C(=O)N2)C(N)=O)C(N)=O)NC(=O)[C@H](CCC(=O)O)NC1=O (some centres unmarked) [Dimer Structure No. 48] (I: {CH2CO}-FSPY[3Pal]WPTYSE[3Pal]VECGK-NH2 / II: {CH2CO}-FSPY[3Pal]W[ξP]TYSE[3Pal]VECGK-NH2; linker I:17-II:17 via CO(CH2CH2O)13CH2CH2CO; thioether I:N-I:15, II:N-II:15) | B (the peptide with 50% or more activity when 10 nM of the peptide was added was evaluated as B) | B (the peptide with 50% or more activity when 10 nM of the peptide was added was evaluated as B) | 89 | 0.8 to 4
2 | CC(C)[C@@H]1NC(=O)[C@H](Cc2cccnc2)NC(=O)[C@H](CCC(=O)O)NC(=O)[C@H](CO)NC(=O)[C@H](Cc2ccc(O)cc2)NC(=O)[C@H]([C@@H](C)O)NC(=O)[C@@H]2CCCN2C(=O)[C@H](Cc2c[nH]c3ccccc23)NC(=O)[C@H](Cc2cccnc2)NC(=O)[C@H](Cc2ccc(O)cc2)NC(=O)[C@@H]2CCCN2C(=O)[C@H](CCC(=O)O)NC(=O)[C@H](Cc2ccccc2)NC(=O)CSCC(C(=O)NCC(=O)N[C@@H](CCCCNC(=O)OCCOCCOCCOCCOCCOCCOCCOCCOCCOCCOCCOCCOC(=O)NCCCCC(NC(=O)CNC(=O)[C@@H]2CSCC(=O)N[C@@H](Cc3ccccc3)C(=O)N[C@@H](CCC(=O)O)C(=O)N3CCCC3C(=O)N[C@@H](Cc3ccc(O)cc3)C(=O)N[C@@H](Cc3cccnc3)C(=O)N[C@@H](Cc3c[nH]c4ccccc34)C(=O)N3CCCC3C(=O)N[C@@H]([C@@H](C)O)C(=O)N[C@@H](Cc3ccc(O)cc3)C(=O)N[C@@H](CO)C(=O)N[C@@H](CCC(=O)O)C(=O)N[C@@H](Cc3cccnc3)C(=O)N[C@@H](C(C)C)C(=O)N[C@@H](CCC(=O)O)C(=O)N2)C(N)=O)C(N)=O)NC(=O)[C@H](CCC(=O)O)NC1=O (some centres unmarked) [Dimer Structure No. 57] (I: {CH2CO}-FEPY[3Pal]WPTYSE[3Pal]VE[ξC]GK-NH2 / II: {CH2CO}-FE[ξP]Y[3Pal]W[ξP]TYSE[3Pal]VECG[ξK]-NH2; linker I:17-II:17 via X1; thioether I:N-I:15, II:N-II:15) | B (the peptide with 50% or more activity when 10 nM of the peptide was added was evaluated as B) | B (the peptide with 50% or more activity when 10 nM of the peptide was added was evaluated as B) | 89 | 0.8 to 4
3 | CC(C)C[C@@H]1NC(=O)[C@H](Cc2ccccc2)NC(=O)CSC[C@@H](C(=O)NCC(=O)NCCOCCOCCOCCOCCOCCOCCOCCOCCC(=O)NCCCC[C@H](NC(=O)CCOCCOCCOCCOCCOCCOCCOCCOCCNC(=O)CNC(=O)[C@@H]2CSCC(=O)N[C@@H](Cc3ccccc3)C(=O)N[C@@H](CC(C)C)C(=O)N3CCC[C@H]3C(=O)N[C@@H](Cc3ccc(O)cc3)C(=O)N[C@@H](Cc3cccnc3)C(=O)N[C@@H](Cc3c[nH]c4ccccc34)C(=O)N3CCC[C@H]3C(=O)N[C@@H]([C@@H](C)O)C(=O)N[C@@H](Cc3ccc(O)cc3)C(=O)N[C@@H](CO)C(=O)N[C@@H](CCC(=O)O)C(=O)N[C@@H](Cc3cccnc3)C(=O)N[C@@H](C(C)C)C(=O)N[C@@H](CCC(=O)O)C(=O)N2)C(N)=O)NC(=O)[C@H](CCC(=O)O)NC(=O)[C@H](C(C)C)NC(=O)[C@H](Cc2cccnc2)NC(=O)[C@H](CCC(=O)O)NC(=O)[C@H](CO)NC(=O)[C@H](Cc2ccc(O)cc2)NC(=O)[C@H]([C@@H](C)O)NC(=O)[C@@H]2CCCN2C(=O)[C@H](Cc2c[nH]c3ccccc23)NC(=O)[C@H](Cc2cccnc2)NC(=O)[C@H](Cc2ccc(O)cc2)NC(=O)[C@@H]2CCCN2C1=O [compound 14] (I: {CH2CO}-FLPY[3Pal]WPTYSE[3Pal]VECG[PEG8]K-NH2 / II: {CH2CO}-FLPY[3Pal]WPTYSE[3Pal]VECG[PEG8]; amide I:18-II:C (inferred); thioether I:N-I:15, II:N-II:15 (inferred)) | A (The peptide with 50% or more activity when 1 nM of the peptide was added was evaluated as A) | A (The peptide with 50% or more activity when 1 nM of the peptide was added was evaluated as A) | 86 | –

Source: patent publication US20250282820A1, “PEPTIDE COMPLEX HAVING TRKB BINDING ACTIVITY” (PEPTIDREAM INC, priority 2022, published 2025)
